Earlier results on one compound are cited in US20090136549A1, “TRANSDERMAL PATCH CONTAINING RASAGILINE FOR TREATMENT OR PROPHYLAXIS OF NERVOUS SYSTEM DISEASE AND ITS PREPARATION PROCESS” (Chongqing Pharmaceutical Research Institute Co., Ltd., priority 2006, published 2009).

One data set deals with patients with early PD. Particulars: rasagiline 2 mg/d for 1 year.
For data set [1] the following is noted: oral administration.

On to `C#CCN[C@@H]1CCc2ccccc21` [rasagiline], for which, in the data set with patients with early PD, the “mean UPDRS score lower than that of the patients administered with placebo in the last 6 months” value is reported as 2.29 units and the “mean UPDRS score lower than that of the patients administered with rasagiline 1 mg/d for 1 year” value is reported as 1.82 units. In data set [1], the “reduction of blood peak concentration by eating” value is 60%.
